The source of these data is paper PMC5567267, “Discovery of a potent protein kinase D inhibitor: insights in the binding mode of pyrazolo[3,4-d]pyrimidine analogues” (MedChemComm, 2017).

Assay [1] has as its target T1, PKD2 (Homo sapiens, UniProt Q9BZL6).
T1 construct: made in house; host or cells: HEK293T cells, transient transfection with pDEST27-PRKD2, stimulated with 500 nM PDB before lysis
T1 sequence (Q9BZL6 1-878): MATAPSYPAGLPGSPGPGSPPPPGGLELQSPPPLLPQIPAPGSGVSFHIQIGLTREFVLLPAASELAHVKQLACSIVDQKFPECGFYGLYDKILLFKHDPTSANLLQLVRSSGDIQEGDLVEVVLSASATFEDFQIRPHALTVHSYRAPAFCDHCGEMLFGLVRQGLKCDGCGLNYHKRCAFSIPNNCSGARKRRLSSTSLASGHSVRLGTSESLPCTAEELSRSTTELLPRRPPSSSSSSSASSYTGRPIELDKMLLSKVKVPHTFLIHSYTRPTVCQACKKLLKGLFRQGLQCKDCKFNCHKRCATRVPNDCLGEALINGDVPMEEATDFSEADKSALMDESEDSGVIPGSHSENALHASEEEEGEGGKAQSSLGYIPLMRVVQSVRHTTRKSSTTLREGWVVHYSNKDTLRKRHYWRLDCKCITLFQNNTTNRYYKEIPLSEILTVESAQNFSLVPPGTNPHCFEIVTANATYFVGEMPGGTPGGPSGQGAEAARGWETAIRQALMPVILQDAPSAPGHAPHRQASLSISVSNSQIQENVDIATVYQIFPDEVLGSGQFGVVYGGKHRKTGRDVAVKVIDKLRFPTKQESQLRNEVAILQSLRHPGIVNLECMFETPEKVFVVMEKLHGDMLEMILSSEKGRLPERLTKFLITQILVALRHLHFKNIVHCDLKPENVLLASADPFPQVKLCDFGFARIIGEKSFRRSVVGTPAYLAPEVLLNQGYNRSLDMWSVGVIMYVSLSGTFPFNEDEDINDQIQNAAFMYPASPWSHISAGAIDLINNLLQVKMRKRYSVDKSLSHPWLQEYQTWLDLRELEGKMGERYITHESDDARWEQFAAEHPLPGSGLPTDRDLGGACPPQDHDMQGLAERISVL
Put plainly: PKD2 screening assay (in vitro radiometric kinase assay). The note with it: for remaining activity at 1 µM: 10 min. It counts as biochemical. The protocol: All 35 described analogues were characterized in vitro via an initial screening at 1 μM against PKD2. […]
scanning of a coomassie stained SDS-polyacrylamide gel.
An in vitro radiometric assay was used to determine the inhibition of PKD in presence of various compounds at a […]
determinations. Reactions were carried out in 40µl of a mixture containing 50mM Tris-HCl pH 7.4, 10mM MgCl2, 50ng of PDB stimulated GST-PKD2, 4µg/ml Syntide-2 (Sigma Aldrich, St. Louis, USA), 25µM ATP and 2µCi [γ-32P]ATP (Perkin-Elmer, Massachusetts, USA). After 10’ the reaction was stopped by spotting 30µl of the reaction on whatmann P81 filter paper. The filter papers were washed 3 times in 0.5% phosphoric acid, followed by one wash in 100% acetone. Subsequently the papers were air-dried and counted using the Tri-Carb 2810 TR scintillation counter (Perkin-Elmer). Percentage of PKD2 inhibition was determined relative to a condition where no inhibitor was added (0,1% dimethylsulfoxide (DMSO)). Graphs were plotted and IC50 values were determined using the GraphPad software package (Prism). […]

The test system of assay [2] is PKD. The arrangement: method as in Wang group. To be noted: previously reported value; different assay setup and enzyme preparation; ref Wang group; cited from earlier work.
The target in assay [3] is T1, PKD2. Kind of assay: Cellular screening assay using phospho-cortactin (Ser-298) as a readout. It counts as cell-based. To be noted: HEK293T cells co-transfected with FLAG-PRKD2 and myc-CTTN. From the text: Therefore we used a cellular assay in which we were able to specifically follow PKD mediated phosphorylation of cortactin, a known PKD substrate, at Ser-298.[15] […] Cortactin phosphorylation at Ser-298 in our assay was PKD-specific, since co-transfection of PKD and cortactin was necessary to produce an adequate signal (data not shown). We selected four compounds for further validation in a cellular assay against PKD2 (Fig. 5).
Fig. 5 The effect of 1-NM-PP1 analogues on PKD mediated phosphorylation of cortactin at Ser-298. HEK293T cells co-transfected with FLAG-PRKD2 and myc-CTTN were pretreated with the indicated compounds for 30 min prior to stimulation with 500 nM Phorbol 12,13-dibutyrate (PDB) for 15 min. Phosphorylation of cortactin was followed via western blot using a home-made pSer-298 antibody and subsequently reprobed for total cortactin (anti-c-Myc; 9E10) and PKD (anti-FLAG M2). Quantification of pSer-298/c-Myc signals of three independent experiments is shown in the graph below. […]
Cellular screening assay using phospho-cortactin as a readout
HEK293T cells were seeded in a 12-well plate at 150.000 cells/well. The next day, cells were transfected with 0.5µg of pcDNA3-Myc-CTTN and 0.5µg of pdcDNA-FLAG-PRKD2. Forty-eight hours after transfection, cells were incubated with compound at the indicated concentrations for 30 min, followed by stimulation with 500nM phorbol 12,13-dibutyrate (PDB) for 15 min. Subsequently, cells were lysed in 50mM Tris pH 7.4, 15mM EDTA, 150mM NaCl, 0.1% (v/v) NP-40 and 25% (v/v) glycerol. Protein quantitation was determined via a Bradford assay. Equal amounts of lysate (30µg) were loaded on a SDS-polyacrylamide gel and subjected to immunoblotting. Blots were probed with Cortactin pSer-298 antibody (home-made) and anti-tubulin antibody (Sigma, St. Louis, Missouri). Subsequently, blots were stripped and reprobed with anti-Myc 9E10 (Sigma, St.
Louis, Missouri) for cortactin and anti-FLAG M2 (Sigma, St. Louis, Missouri) for PKD2.

Read-outs that look alike come from different tables or passages of the source.

As to `CC(C)(C)n1nc(Cc2cccc3ccccc23)c2c(N)ncnc21` [Compound 1, 1-tert-butyl-3-(1-naphthylmethyl)-1H-pyrazolo[3,4-d]pyrimidin-4-amine, reference compound], the remaining activity at 1 µM in assay [1] (ESI table, initial screening of all analogues at 1µM, read-out: % PKD2 activity remaining (1µM) (average ±SD)) stood at 23 ± 1.7%; in assay [1] (compound at 1 μM, PDB stimulated GST-PKD2, Syntide-2, 25µM ATP, relative to no inhibitor (DMSO), read-out: % PKD 2 activity remaining (1 μM) (Average ± SD)), 23 ± 1.7%. The IC50 (commonly the point on the concentration scale where inhibition reaches its midpoint) is 398 nM in assay [1] (PDB stimulated GST-PKD2, Syntide-2, 25µM ATP, radiometric) and 133 nM in assay [2]. For the same compound, the “cellular activity against PKD2 (in words)” value in assay [3] (pSer-298 cortactin western blot) is on record as “dose-dependent inhibition”. For the same compound, the inhibition (commonly the change of the read-out against control, counted positive when it falls) at 40 µM in assay [3] (HEK-293T, 40 μM compound, 30 min pretreatment, 500 nM PDB 15 min, read-out: inhibition of PKD2 mediated cortactin Ser-298 phosphorylation) stood at 50%.
